Experimental data reported in PubChem BioAssay (NCI).
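Cells were grown in 96-well plates and exposed to each compound for 48 hours at five concentrations; endpoints were interpolated linearly between bracketing concentrations, or set to the highest concentration if not reached. TGI: total growth inhibition.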

Tests used:
Assay in all cases: NCI tumour cell line growth inhibition, 48 h
OVCAR-4 ovarian = test system: OVCAR-4 ovarian
DMS 114 small cell lung = test system: DMS 114 small cell lung
NCI-H460 lung = test system: NCI-H460 lung
SF-539 CNS = test system: SF-539 CNS
RXF 393 renal = test system: RXF 393 renal
SF-268 CNS = test system: SF-268 CNS
SNB-19 CNS = test system: SNB-19 CNS
HCC-2998 colon = test system: HCC-2998 colon
SR leukemia = test system: SR leukemia
UACC-257 melanoma = test system: UACC-257 melanoma
KM12 colon = test system: KM12 colon
M19-MEL melanoma = test system: M19-MEL melanoma
SW-620 colon = test system: SW-620 colon
EKVX NSCLC = test system: EKVX NSCLC
K-562 leukemia = test system: K-562 leukemia
HL-60(TB) leukemia = test system: HL-60(TB) leukemia
SK-MEL-5 melanoma = test system: SK-MEL-5 melanoma
OVCAR-5 ovarian = test system: OVCAR-5 ovarian
SN12C renal = test system: SN12C renal
NCI-H226 lung = test system: NCI-H226 lung
IGROV1 ovarian = test system: IGROV1 ovarian
RXF-631 renal = test system: RXF-631 renal
LOX IMVI melanoma = test system: LOX IMVI melanoma
HOP-18 NSCLC = test system: HOP-18 NSCLC
786-0 renal = test system: 786-0 renal
XF 498 CNS = test system: XF 498 CNS
CCRF-CEM leukemia = test system: CCRF-CEM leukemia
A549 NSCLC = test system: A549 NSCLC
NCI-H23 lung = test system: NCI-H23 lung
DLD-1 colon = test system: DLD-1 colon
SF-295 CNS = test system: SF-295 CNS
SNB-78 CNS = test system: SNB-78 CNS
OVCAR-8 ovarian = test system: OVCAR-8 ovarian
COLO 205 colon = test system: COLO 205 colon
MALME-3M melanoma = test system: MALME-3M melanoma
NCI-H522 lung = test system: NCI-H522 lung
HOP-92 NSCLC = test system: HOP-92 NSCLC
SK-MEL-2 melanoma = test system: SK-MEL-2 melanoma
HOP-62 NSCLC = test system: HOP-62 NSCLC
LXFL 529 NSCLC = test system: LXFL 529 NSCLC
TK-10 renal = test system: TK-10 renal
MOLT-4 leukemia = test system: MOLT-4 leukemia
ACHN renal = test system: ACHN renal
SK-OV-3 ovarian = test system: SK-OV-3 ovarian
A498 renal = test system: A498 renal
SK-MEL-28 melanoma = test system: SK-MEL-28 melanoma
UACC-62 melanoma = test system: UACC-62 melanoma
CAKI-1 renal = test system: CAKI-1 renal
HT29 colon = test system: HT29 colon
DMS 273 small cell lung = test system: DMS 273 small cell lung
UO-31 renal = test system: UO-31 renal
KM20L2 colon = test system: KM20L2 colon
M14 melanoma = test system: M14 melanoma
U251 CNS = test system: U251 CNS
SNB-75 CNS = test system: SNB-75 CNS
HCT-15 colon = test system: HCT-15 colon
OVCAR-3 ovarian = test system: OVCAR-3 ovarian
RPMI-8226 leukemia = test system: RPMI-8226 leukemia

## Cn1c(=O)c2nc3sc4ccccc4c(=N)n3c2n(C)c1=O
OVCAR-4 ovarian
  TGI: > 100 µM
DMS 114 small cell lung
  TGI: > 100 µM
NCI-H460 lung
  TGI: > 100 µM
SF-539 CNS
  TGI: > 100 µM
RXF 393 renal
  TGI: > 100 µM
SF-268 CNS
  TGI: > 100 µM
SNB-19 CNS
  TGI: > 100 µM
HCC-2998 colon
  TGI: > 100 µM
SR leukemia
  TGI: > 100 µM
UACC-257 melanoma
  TGI: > 100 µM
KM12 colon
  TGI: > 100 µM
M19-MEL melanoma
  TGI: > 100 µM
SW-620 colon
  TGI: > 100 µM
EKVX NSCLC
  TGI: > 100 µM
K-562 leukemia
  TGI: > 100 µM
HL-60(TB) leukemia
  TGI: > 100 µM
SK-MEL-5 melanoma
  TGI: > 100 µM
OVCAR-5 ovarian
  TGI: > 100 µM
SN12C renal
  TGI: > 100 µM
NCI-H226 lung
  TGI: > 100 µM
IGROV1 ovarian
  TGI: > 100 µM
RXF-631 renal
  TGI: > 100 µM
LOX IMVI melanoma
  TGI: > 100 µM
HOP-18 NSCLC
  TGI: > 100 µM
786-0 renal
  TGI: > 100 µM
XF 498 CNS
  TGI: > 100 µM
CCRF-CEM leukemia
  TGI: > 100 µM
A549 NSCLC
  TGI: > 100 µM
NCI-H23 lung
  TGI: > 100 µM
DLD-1 colon
  TGI: > 100 µM
SF-295 CNS
  TGI: > 100 µM
SNB-78 CNS
  TGI: > 100 µM
OVCAR-8 ovarian
  TGI: > 100 µM
COLO 205 colon
  TGI: > 100 µM
MALME-3M melanoma
  TGI: > 100 µM
NCI-H522 lung
  TGI: > 100 µM
HOP-92 NSCLC
  TGI: > 100 µM
SK-MEL-2 melanoma
  TGI: > 100 µM
HOP-62 NSCLC
  TGI: > 100 µM
LXFL 529 NSCLC
  TGI: > 100 µM
TK-10 renal
  TGI: > 100 µM
MOLT-4 leukemia
  TGI: > 100 µM
ACHN renal
  TGI: > 100 µM
SK-OV-3 ovarian
  TGI: > 100 µM
A498 renal
  TGI: > 100 µM
SK-MEL-28 melanoma
  TGI: > 100 µM
UACC-62 melanoma
  TGI: > 100 µM
CAKI-1 renal
  TGI: > 100 µM
HT29 colon
  TGI: > 100 µM
DMS 273 small cell lung
  TGI: > 100 µM
UO-31 renal
  TGI: > 100 µM

## O=C1CCC(=O)C12CCc1ccccc12
OVCAR-4 ovarian
  TGI: > 100 µM
DMS 114 small cell lung
  TGI: > 100 µM
NCI-H460 lung
  TGI: > 100 µM
KM20L2 colon
  TGI: > 100 µM
M14 melanoma
  TGI: > 100 µM
U251 CNS
  TGI: > 100 µM
RXF 393 renal
  TGI: > 100 µM
SF-268 CNS
  TGI: > 100 µM
HCC-2998 colon
  TGI: > 100 µM
M19-MEL melanoma
  TGI: > 100 µM
SW-620 colon
  TGI: > 100 µM
EKVX NSCLC
  TGI: > 100 µM
HL-60(TB) leukemia
  TGI: > 100 µM
SNB-75 CNS
  TGI: > 100 µM
SN12C renal
  TGI: > 100 µM
HCT-15 colon
  TGI: > 100 µM
OVCAR-3 ovarian
  TGI: > 100 µM
IGROV1 ovarian
  TGI: > 100 µM
RXF-631 renal
  TGI: > 100 µM
LOX IMVI melanoma
  TGI: > 100 µM
HOP-18 NSCLC
  TGI: > 100 µM
786-0 renal
  TGI: > 100 µM
XF 498 CNS
  TGI: > 100 µM
A549 NSCLC
  TGI: > 100 µM
NCI-H23 lung
  TGI: > 100 µM
DLD-1 colon
  TGI: > 100 µM
SF-295 CNS
  TGI: > 100 µM
OVCAR-8 ovarian
  TGI: > 100 µM
COLO 205 colon
  TGI: > 100 µM
MALME-3M melanoma
  TGI: > 100 µM
HOP-92 NSCLC
  TGI: > 100 µM
HOP-62 NSCLC
  TGI: > 100 µM
LXFL 529 NSCLC
  TGI: > 100 µM
TK-10 renal
  TGI: > 100 µM
ACHN renal
  TGI: > 100 µM
SK-OV-3 ovarian
  TGI: > 100 µM
SK-MEL-28 melanoma
  TGI: > 100 µM
UACC-62 melanoma
  TGI: > 100 µM
CAKI-1 renal
  TGI: > 100 µM
HT29 colon
  TGI: > 100 µM
DMS 273 small cell lung
  TGI: > 100 µM
UO-31 renal
  TGI: > 100 µM

## CC12CCC(C)(c3cc(O)c(O)cc31)c1cc(O)c(O)cc12
OVCAR-4 ovarian
  TGI: 28.7 µM
DMS 114 small cell lung
  TGI: 31.1 µM
NCI-H460 lung
  TGI: 35.7 µM
KM20L2 colon
  TGI: 39.2 µM
M14 melanoma
  TGI: 36 µM
RXF 393 renal
  TGI: 31.3 µM
SF-268 CNS
  TGI: 42.9 µM
SNB-19 CNS
  TGI: 30.2 µM
HCC-2998 colon
  TGI: 33.6 µM
UACC-257 melanoma
  TGI: 29.8 µM
KM12 colon
  TGI: 32.7 µM
M19-MEL melanoma
  TGI: 31.6 µM
SW-620 colon
  TGI: 40.9 µM
EKVX NSCLC
  TGI: 56.3 µM
K-562 leukemia
  TGI: 29.5 µM
HL-60(TB) leukemia
  TGI: 13.1 µM
SK-MEL-5 melanoma
  TGI: 36.4 µM
OVCAR-5 ovarian
  TGI: 48.1 µM
RPMI-8226 leukemia
  TGI: 30 µM
SNB-75 CNS
  TGI: 52.5 µM
SN12C renal
  TGI: 48.6 µM
HCT-15 colon
  TGI: 29.3 µM
OVCAR-3 ovarian
  TGI: 32.6 µM
IGROV1 ovarian
  TGI: 40.4 µM
RXF-631 renal
  TGI: 55.6 µM
LOX IMVI melanoma
  TGI: 35.4 µM
786-0 renal
  TGI: 27.9 µM
XF 498 CNS
  TGI: 34 µM
CCRF-CEM leukemia
  TGI: 11.1 µM
A549 NSCLC
  TGI: 94.4 µM
NCI-H23 lung
  TGI: 75.5 µM
DLD-1 colon
  TGI: 45.7 µM
SF-295 CNS
  TGI: 46.8 µM
SNB-78 CNS
  TGI: 39.2 µM
OVCAR-8 ovarian
  TGI: 57.9 µM
COLO 205 colon
  TGI: 30 µM
MALME-3M melanoma
  TGI: 45.2 µM
NCI-H522 lung
  TGI: 6.38 µM
HOP-92 NSCLC
  TGI: 25.4 µM
SK-MEL-2 melanoma
  TGI: > 100 µM
HOP-62 NSCLC
  TGI: 67.8 µM
LXFL 529 NSCLC
  TGI: 22.2 µM
TK-10 renal
  TGI: 40.3 µM
MOLT-4 leukemia
  TGI: 42.5 µM
ACHN renal
  TGI: 32.5 µM
SK-OV-3 ovarian
  TGI: 36.7 µM
SK-MEL-28 melanoma
  TGI: 34.1 µM
UACC-62 melanoma
  TGI: 36.2 µM
CAKI-1 renal
  TGI: 23.6 µM
HT29 colon
  TGI: 33.2 µM
DMS 273 small cell lung
  TGI: 37.5 µM
UO-31 renal
  TGI: 43.5 µM
